Like-named read-outs stand apart in the source and are kept apart here. Square brackets hold non-standard residues; d marks the D form. Peptide text beside a SMILES is read from it. * marks the point of attachment. Ala(1H-tetrazol-5-yl) = N[C@@H](Cc1nnn[nH]1)C(=O)O; 1Nal = N[C@@H](Cc1cccc2ccccc12)C(=O)O; 2Nal = N[C@@H](Cc1ccc2ccccc2c1)C(=O)O; Tic = O=C(O)[C@@H]1Cc2ccccc2CN1; Cha = N[C@@H](CC1CCCCC1)C(=O)O; NMeL = CN[C@@H](CC(C)C)C(=O)O; Cbz = O=C(OCc1ccccc1)*; Boc = CC(C)(C)OC(=O)*
Experiments:
cortical CCK receptor = target: T1, cortical CCK receptor (Cavia porcellus, UniProt H0VZC5); assay: Radioligand binding ([125I]Bolton-Hunter CCK8) in guinea pig cerebral cortical membranes; conditions: displacement of [125I]BH-CCK8, cortical membranes, 30°C for 150 min, Hill analysis; read-out: IC₅₀ (nM) cortex
T1 construct: Cortical and pancreatic membranes were prepared as described; from tissue; host or cells: guinea pig cerebral cortex membranes
T1 sequence (H0VZC5 1-426): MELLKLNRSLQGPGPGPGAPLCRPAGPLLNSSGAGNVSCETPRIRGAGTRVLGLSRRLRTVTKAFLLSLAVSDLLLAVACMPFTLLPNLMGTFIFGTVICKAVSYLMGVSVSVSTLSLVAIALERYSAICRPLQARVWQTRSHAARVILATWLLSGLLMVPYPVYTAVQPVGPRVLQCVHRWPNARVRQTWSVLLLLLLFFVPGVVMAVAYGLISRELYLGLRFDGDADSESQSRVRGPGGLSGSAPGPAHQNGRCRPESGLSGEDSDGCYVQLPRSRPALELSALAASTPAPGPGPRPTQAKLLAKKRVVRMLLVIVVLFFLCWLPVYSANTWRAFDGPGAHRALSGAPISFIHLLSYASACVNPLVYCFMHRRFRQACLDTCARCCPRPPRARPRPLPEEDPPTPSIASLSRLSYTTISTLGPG
Excerpt: Protocol for Radioligand Binding Experiments in Guinea Pig Cerebral Cortical and Pancreatic Membrance Preparations
CCK8 (Asp-Tyr(SO₃H)-Met-Gly-Trp-Met-Asp-Phe-NH₂), bestatin and phosphormaidon were purchased from Peptide International (Louisville, KY). EGTA, HEPES, BSA were purchased from Sigma Chemical Co. (St. Louis, MO). [¹²⁵I]-Bolton-Hunter CCK8 (BH-CCK8) (specific activity, 2200 Ci, mmol) was obtained from New England Nuclear (Boston, MA). Male ginea pigs, 250 to 325 g, were obtained from Scientific Small Animal Laboratory and Farm (Arlington Heights, IL). Collangenase, code CLSPA was purchased from Worthington (Frehold, NJ).
Cortical and pancreatic membranes were prepared as described (Lin and Miller; J. Pharmacol. Exp. Ther. 232, 775-780, 1985). In brief, pancreas and cortex were removed and rinsed with ice-cold saline. Visible fat and connective tissues were removed from the pancreas. Tissues were weighed and homogenized in approximately 25 mL of ice-cold 50 mM Tris-HCl buffer, pH 7.4 at 4°C with a Brinkman Polytron for 30 sec, setting 7. The homogenates were centrifuged for 10 min at 1075 x g and the pellet was discarded. The supernantants were saved and centrifuged at 38,730 x g for 20 min. The resultant pellets were rehomogenized in 25 mL of 50 mM Tris-HCl buffer with a Teflon-glass homogenizer, 5 up and down strokes. The homogenates were centrifuged again at 38,730 x g for 20 min. The pellets were then resuspended in 20 mM HEPES, containing 1 mM EGTA, 118 mM NaCl, 4.7 mM KCl, 5mM MgCl₂, 100 uM bestatin, 3 uM phosphoramidon, pH 7.4 at 22°C with a Teflon-glass homogenizer, 15 up and down strokes. The resuspension volume used for the cortex was 15 mL per g of original wet weight and 60 mL per g for pancreas.
[¹²⁵I]Bolton-Hunter CCK8 and test compounds were diluted with HEPES-EGTA-salt buffer (see above) containing 0.5% bovine serum albumin (BSA). To 1 mL Skatron polystyrene tubes were added 25 uL of test compounds, 25 uL of [¹²⁵I]BH-CCK8 and 200 uL of membrane suspension. The final BSA concentration was 0.1%. The cortical tissues were incubated at 30°C for 150 min. and pancreatic tissues were incubated at 37°C for 150 min. Incubations were terminated by filtration using Skatron Cell Harvester and SS32 microfiber filter mats. The specific binding of [¹²⁵I]BH-CCK8, defined as the difference betwen binding in the absence and presence of 1 uM CCK8, was 85-90% of total binding in cortex and 90-95% in pancreas. IC₅₀s were determined from the Hill analysis.

CCK receptors = target: T2, CCK receptors (Cavia porcellus, UniProt Q63931); assay: Radioligand binding ([125I]Bolton-Hunter CCK8) in guinea pig pancreatic membranes
T2 construct: Cortical and pancreatic membranes were prepared as described; from tissue; host or cells: guinea pig pancreas membranes
T2 sequence (Q63931 1-430): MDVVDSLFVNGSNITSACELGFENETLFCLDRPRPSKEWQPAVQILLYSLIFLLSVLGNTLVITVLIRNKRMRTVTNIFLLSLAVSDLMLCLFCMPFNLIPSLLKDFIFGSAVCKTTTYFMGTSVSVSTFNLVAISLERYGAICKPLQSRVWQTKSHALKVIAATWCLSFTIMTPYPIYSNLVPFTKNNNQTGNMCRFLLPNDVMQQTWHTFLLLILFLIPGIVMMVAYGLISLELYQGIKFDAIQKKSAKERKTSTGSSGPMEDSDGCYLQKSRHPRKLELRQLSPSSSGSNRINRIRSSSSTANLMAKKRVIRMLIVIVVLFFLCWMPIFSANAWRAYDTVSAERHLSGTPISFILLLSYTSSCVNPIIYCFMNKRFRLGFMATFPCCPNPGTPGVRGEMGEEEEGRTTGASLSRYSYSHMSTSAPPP
Description: EGTA, HEPES, BSA were purchased from Sigma Chemical Co. (St. Louis, MO). […] Male ginea pigs, 250 to 325 g, were obtained from Scientific Small Animal Laboratory and Farm (Arlington Heights, IL). Collangenase, code CLSPA was purchased from Worthington (Frehold, NJ).
The final BSA concentration was 0.1%. The cortical tissues were incubated at 30°C for 150 min. and pancreatic tissues were incubated at 37°C for 150 min. Incubations were terminated by filtration using Skatron Cell Harvester and SS32 microfiber filter mats. […] IC₅₀s were determined from the Hill analysis.

[1] = target: T3, CCK-B receptors on small cell lung cancer cell lines (Homo sapiens, UniProt P32239); assay: Measurement of [Ca++]i changes in NCI-H345 and H209 cell lines (indo-1 fluorescence); assay type: cell-based; conditions: read-out: Intrinsic Activity Relative to CCK-8
T3 construct: endogenous in cells; host or cells: NCI-H345 and H209 small cell lung cancer cells
T3 sequence (P32239 1-447): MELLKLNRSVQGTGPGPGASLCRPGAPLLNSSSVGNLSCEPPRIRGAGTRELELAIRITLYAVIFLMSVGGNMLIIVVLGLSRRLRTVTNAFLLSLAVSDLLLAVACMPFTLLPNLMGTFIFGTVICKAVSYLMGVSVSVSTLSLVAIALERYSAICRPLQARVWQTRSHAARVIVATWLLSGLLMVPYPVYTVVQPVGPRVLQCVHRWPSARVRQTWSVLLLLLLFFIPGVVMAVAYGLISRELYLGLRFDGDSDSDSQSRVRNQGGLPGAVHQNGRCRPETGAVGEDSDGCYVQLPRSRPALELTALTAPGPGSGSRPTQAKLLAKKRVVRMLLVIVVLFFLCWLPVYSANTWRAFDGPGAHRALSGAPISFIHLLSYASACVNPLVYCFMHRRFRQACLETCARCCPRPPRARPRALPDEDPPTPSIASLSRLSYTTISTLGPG
Description: Protocol for Measuring [Ca++]i Changes in NCI-H345 and H209 Cell Lines
Culture conditions were as described (D.G. Yoder, T.W. Moody, Peptides, 8, 103 (1987), except that the medium was modified to RPMI 1640 with 2.5% fetal bovine serum (heat inactivated), 5µg/l sodium selenite, 5 mg/l human transferrin, 5 mg/l insulin, penicillin (100 U/l) and streptomycin (100 µg/l). To measure intracellular Ca²⁺, cells were loaded with 1 µM of indo-1,AM, for 60 min at 37°C. The cells were centrifuged at 750 x g for 5 min and resuspended in 40 mL Buffer F (Dulbecco's phosphate buffered saline containing 0.1% glucose, pH 7.4). The cells were counted then twice washed by centrifugation. The final pellet was resuspended (approximately 1 x 10⁶ cells/mL) in Buffer F. The cells were thermally equilibrated in a thermostated cuvette (37°C) for 2 min prior to base-line fluorescence measurement. Fluorescence measurements were made with an SLM 8000C spectrofluorimeter equipped with magnetic microstirrer and polarizing filters. Measurements with indo-1-loaded cells were obtained at excitation wavelength of 350 nm and emission wavelength of 480 and 405 nM and the time interval for the measurements was 0.5 sec.

[2] = displacement of [125I]BH-CCK8, pancreatic membranes, 37°C for 150 min, Hill analysis, read-out: IC₅₀ (uM) pancreas

| IC50 (cortical CCK receptor) | IC50 (CCK receptors; [2]) | Emax [1] | Compound | IC50 (CCK receptors) |
| --- | --- | --- | --- | --- |
| 2.5 nM | 2.7 µM |  | CC(C)C[C@H](NC(=O)[C@@H]1Cc2c[nH]c3cccc(c23)CC(=O)N1)C(=O)N[C@@H](CC(=O)O)C(=O)N[C@@H](Cc1ccccc1)C(N)=O [Example 1, CTP-Leu-Asp-Phe-NH₂] |  |
|  |  | 96% | CC(C)C[C@H](NC(=O)[C@@H]1Cc2c[nH]c3cccc(c23)CC(=O)N1)C(=O)N[C@@H](CC(=O)O)C(=O)N(C)[C@@H](Cc1ccccc1)C(N)=O [Example 6, Ctp-Leu-Asp-(NMe)Phe-NH₂] |  |
| 13 nM | > 1 µM |  | CC(C)C[C@H](NC(=O)[C@H](Cc1c[nH]c2ccccc12)NC(=O)OC(C)(C)C)C(=O)N[C@@H](Cc1nnn[nH]1)C(=O)N[C@@H](Cc1ccccc1)C(N)=O [Example 9, Boc-Trp-Leu-[β-1(2)H-tetrazol-5-yl]-L-alanyl-Phe-NH₂] (Boc-WL[Ala(1H-tetrazol-5-yl)]F-NH2) |  |
| 5 nM | 1 µM |  | CC(C)C[C@@H](C(=O)N[C@@H](CC(=O)O)C(=O)N[C@@H](Cc1ccccc1)C(N)=O)N(C)C(=O)[C@H](Cc1c[nH]c2ccccc12)NC(=O)OCc1ccccc1 [Example 15, Cbz-Trp-(NMe)Leu-Asp-Phe-NH₂] (Cbz-W[NMeL]DF-NH2) |  |
| 54 nM | 1.8 µM |  | CC(C)C[C@H](NC(=O)[C@H](Cc1c[nH]c2ccccc12)NC(=O)OC(C)(C)C)C(=O)N[C@@H](CC(=O)O)C(=O)NC(=Cc1ccccc1)C(N)=O [Example 19, Boc-Trp-Leu-Asp-(dehydro)Phe-NH₂] |  |
| 16 nM | > 10 µM |  | CC(C)C[C@H](NC(=O)[C@@H]1Cc2c[nH]c3cccc(c23)CC(=O)N1)C(=O)N[C@@H](CC(=O)O)C(=O)NC(=Cc1ccccc1)C(N)=O [Example 23, Ctp-Leu-Asp-(dehydro)Phe-NH₂] |  |
| 13 nM | 3.8 µM |  | CC(C)C[C@H](NC(=O)[C@H](Cc1c[nH]c2ccccc12)NC(=O)OC(C)(C)C)C(=O)N[C@@H](CC(=O)O)C(=O)N[C@@H](Cc1c[nH]c2ccccc12)C(N)=O [Example 42, Boc-Trp-Leu-Asp-Trp-NH₂] (Boc-WLDW-NH2) |  |
| 170 nM | 11 µM |  | CC(C)C[C@H](NC(=O)[C@H](Cc1c[nH]c2ccccc12)NC(=O)OC(C)(C)C)C(=O)N[C@@H](CC(=O)O)C(=O)N[C@@H](CC1CCCCC1)C(N)=O [Example 43, Boc-Trp-Leu-Asp-Cha-NH₂] (Boc-WLD[Cha]-NH2) |  |
|  |  | 104% | CC(C)C[C@H](NC(=O)[C@H](Cc1c[nH]c2ccccc12)NC(=O)OC(C)(C)C)C(=O)N[C@@H](CC(=O)O)C(=O)N[C@@H](Cc1ccc2ccccc2c1)C(N)=O [Example 44, Boc-Trp-Leu-Asp-β-Nal-NH₂] (Boc-WLD[2Nal]-NH2) |  |
| 12 nM | 1.7 µM |  | CC(C)C[C@H](NC(=O)[C@H](Cc1c[nH]c2ccccc12)NC(=O)OC(C)(C)C)C(=O)N[C@@H](CC(=O)O)C(=O)N[C@@H](Cc1cccc2ccccc12)C(N)=O [Example 45, Boc-Trp-Leu-Asp-α-Nal-NH₂] (Boc-WLD[1Nal]-NH2) |  |
| 27 nM | 5 µM |  | CC(C)C[C@H](NC(=O)[C@H](Cc1ccc2ccccc2c1)NC(=O)OC(C)(C)C)C(=O)N[C@@H](CC(=O)O)C(=O)N[C@@H](Cc1ccccc1)C(N)=O [Example 50, Boc-β-Nal-Leu-Asp-Phe-NH₂] (Boc-[2Nal]LDF-NH2) |  |
| 2.6 nM | 3.5 µM | 100% | CCC[C@H]1CCN(C(=O)[C@@H]2Cc3c[nH]c4cccc(c34)CC(=O)N2)[C@@H]1C(=O)N[C@@H](CC(=O)O)C(=O)N(C)[C@@H](Cc1ccccc1)C(N)=O [Example 52, Ctp-Tpp-Asp-(NMe)Phe-NH₂] |  |
| 5 nM | 3.7 µM |  | CCC[C@H]1CCN(C(=O)[C@H](Cc2c[nH]c3ccccc23)NC(=O)OC(C)(C)C)[C@@H]1C(=O)N[C@@H](CC(=O)O)C(=O)N[C@@H](Cc1c[nH]c2ccccc12)C(N)=O [Example 54, Boc-Trp-Tpp-Asp-Trp-NH₂] |  |
| 0.4 nM | 1.4 µM | 109% | CCC[C@H]1CCN(C(=O)[C@@H]2Cc3c[nH]c4cccc(c34)CC(=O)N2)[C@@H]1C(=O)N[C@@H](CC(=O)O)C(=O)N[C@@H](Cc1cccc2ccccc12)C(N)=O [Example 57, Ctp-Tpp-Asp-α-Nal-NH₂] |  |
| 1.9 nM | 11 µM | 100% | CCC[C@H]1CCN(C(=O)[C@@H]2Cc3c[nH]c4cccc(c34)CC(=O)N2)[C@@H]1C(=O)N[C@@H](CC(=O)O)C(=O)N[C@@H](Cc1ccc2ccccc2c1)C(N)=O [Example 58, Ctp-Tpp-Asp-β-Nal-NH₂] |  |
| 0.9 nM | 4.3 µM |  | CCC[C@H]1CCN(C(=O)[C@@H]2Cc3c[nH]c4cccc(c34)CC(=O)N2)[C@@H]1C(=O)N[C@@H](CC(=O)O)C(=O)N[C@@H](CC1CCCCC1)C(N)=O [Example 59, Ctp-Tpp-Asp-Cha-NH₂] |  |

| Compound | IC50 (cortical CCK receptor) | IC50 (CCK receptors; [2]) | Emax [1] | IC50 (CCK receptors) |
| --- | --- | --- | --- | --- |
| CC(C)C[C@H](NC(=O)[C@H](Cc1c[nH]c2ccccc12)NC(=O)OC(C)(C)C)C(=O)N[C@@H](CC(=O)O)C(=O)N1Cc2ccccc2C[C@H]1C(N)=O [Example 2, Boc-Trp-Leu-Asp-Tiq-NH₂] (Boc-WLD[Tic]-NH2) | 37 nM |  |  | 19 µM |
| CCC[C@H]1CCN(C(=O)[C@H](Cc2c[nH]c3ccccc23)NC(=O)OC(C)(C)C)[C@@H]1C(=O)N[C@@H](CC(=O)O)C(=O)N[C@@H](Cc1ccccc1)C(N)=O [Example 47, Boc-Trp-Tpp-Asp-Phe-NH₂] | 1.2 nM | 89 µM |  |  |

From EP0405506A1, “Tetrapeptide type-B CCK receptor ligands” (ABBOTT LABORATORIES, priority 1989, dated 1991)
